What all share (assay): NCI anticancer screen, dose series, 48 h
Assay [1] deals with SN12C renal.
Assay [2] concerns OVCAR-8 ovarian.
Assay [3] relates to HL-60(TB) leukemia.
For assay [4], the system named is SK-MEL-5 melanoma.
For assay [5], the system named is SF-539 CNS.
Assay [6] relates to NCI-H460 lung.
Assay [7] has as its system CCRF-CEM leukemia.
The test system of assay [8] is CAKI-1 renal.
Assay [9] concerns MDA-MB-435.
Assay [10] has as its system T-47D breast.

“And” between values parts separate entries of the source, which are not always exact repeats. Equal values may be shown once.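 Where inhibition never reached the appropriate level, the endpoint shown equals the highest concentration tested. Otherwise, values were interpolated linearly from a five-concentration, 48-hour dose response in 96-well plates. The concentration for 50% growth inhibition is given as GI50. TGI: total growth inhibition.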

We go through 28 compounds from PubChem BioAssay (NCI).

Consider `CC(N)Cc1ccc(Cl)cc1` (stereo unspecified), for which the TGI in assay [1], in assay [2], in [3], in [4], in assay [5] and in assay [6] was greater than 100 µM throughout. Also, the TGI in [7] and in [8] was greater than 100 µM each time.

As to `O=C(Nc1cc(Cl)ccc1Cl)c1cc2cccc(Br)c2oc1=O`, the TGI in [1], in assay [2], in assay [3], in [4], in [5] and in assay [6] was greater than 100 µM throughout. Moreover, the TGI in assay [7] is greater than 100 µM.

Regarding `COc1ccc2c3c(c(C(=O)O)oc13)CCC2`, the TGI in [1], in [2], in assay [3], in assay [4], in assay [5] and in assay [6] was greater than 100 µM throughout. Also, the TGI in assay [7] was greater than 100 µM.

In the case of `O=c1cc(-c2ccccc2)oc2ccc(OC/C(=N/O)c3ccc(F)cc3)cc12`, the GI50 is 6.59 µM in assay [1]; 0.913 µM in assay [9]; 8.44 µM in [2]; 1.97 µM in [3]; 1.61 µM in assay [4]; 1.92 µM in assay [5]. Further, the GI50 was 2.54 µM in [6], 3.24 µM in assay [7] and 3.57 µM in assay [8]. Also, the TGI in [1] was 14.5 µM; in assay [9] it was 1.98 µM; in assay [2], greater than 50 µM; in [3] it was 13.9 µM; in assay [4], 6.23 µM; in [5], 4.06 µM. The TGI in assay [6] stood at 12.1 µM; in assay [7], 17.1 µM; in assay [8] it was 16.2 µM.

For `Cc1cc2c(c3nocc13)C(=O)c1ccccc1C2=O`, the TGI in [1], in assay [2], in assay [3], in assay [4], in assay [5] and in assay [6] was greater than 100 µM each time. In addition, the TGI in assay [7] and in [8] was greater than 100 µM each time.

For the compound `O=C(O)C(Br)C(Br)C(=O)O` (stereo unspecified), the TGI in [1], in assay [9], in assay [2], in assay [3], in assay [4] and in assay [5] was greater than 100 µM each time. The TGI in assay [6] and in assay [8] was greater than 100 µM in each case.

Take `O=C1NC(O)c2ccccc2O1` (stereo unspecified): the TGI in assay [1], in assay [9], in [2], in assay [3], in [4] and in assay [5] was greater than 100 µM throughout. Further, the TGI in assay [6], in assay [7] and in [8] was greater than 100 µM in each case.

As to `CN(C)CCNC(=O)c1cccc2nc3ccc4cccnc4c3nc12`, the TGI in assay [1] stood at 4.31 µM; in [2], 7.42 µM; in [3] it was 2.91 µM; in [4], 1.33 µM; in [5], 1.1 µM; in assay [6] it was 1.01 µM. Moreover, the TGI in [7] turned out to be 13.1 µM; in assay [8] it was 6.37 µM.

With `COC1=CC(=O)C(Br)=CC1=O`, the TGI in [1] was 33.3 µM; in assay [2] it was 65.8 µM; in assay [3], 23.6 µM; in assay [4] it was 34.5 µM; in assay [6] it was greater than 100 µM; in assay [7], 8.84 µM. Moreover, the TGI in assay [8] was 32.4 µM.

As for `O=C1NC(=O)C(=Cc2c3ccccc3cc3ccccc23)C(=O)N1`, the TGI in [1], in assay [2], in assay [3], in [4], in assay [5] and in [6] was greater than 100 µM in each case. The TGI in assay [7] and in assay [8] was greater than 100 µM each time.

Regarding `CC(C)=O.O=C([O-])C(F)(F)F.O=C([O-])C(F)(F)F.O=C([O-])C(F)(F)F.O=C([O-])C(F)(F)F.[Rh+2].[Rh+2]`, the GI50 in assay [1] is greater than 100 µM; in assay [2], 56.1 µM; in [4] it was greater than 100 µM; in assay [5] it was greater than 100 µM; in assay [7], 35.5 µM. In addition, the TGI in assay [1], in assay [2], in assay [4], in assay [5] and in [7] was greater than 100 µM throughout.

For the compound `C#CCN(N=O)C(=O)NCCCCC(NC(=O)OCc1ccccc1)C(=O)OCc1ccccc1` (stereo unspecified), the TGI was greater than 100 µM in assay [1]; greater than 100 µM in assay [2]; greater than 100 µM in assay [3]; greater than 100 µM in assay [4]; 37.4 µM in assay [5]; greater than 100 µM in [6]. In addition, the TGI in [7] worked out at 45.1 µM; in assay [8], 56.6 µM.

In the case of `CCN1C(=O)N(CC)C2C1NN=c1s/c(=C\c3cccs3)c(=O)n12` (stereo unspecified), the GI50 in [1] is 0.555 µM; in assay [9], 0.0268 µM; in [2], 0.424 µM; in assay [3], 0.225 µM; in [4], 0.218 µM; in assay [5], 0.0949 µM. Besides, the GI50 was 0.119 µM in [6], 0.256 µM in assay [7] and 0.0745 µM in assay [8]. For the same compound, the TGI in assay [1] was greater than 100 µM; in [9], 0.0828 µM; in assay [2], greater than 100 µM; in [3], 0.707 µM; in [4] it was 4.26 µM; in assay [5] it was 0.812 µM. The TGI in assay [7] and in [8] was greater than 100 µM each time.

With `COc1cc2c3c(n(CCCCNC(=O)OC(C)(C)C)c(=O)c2cc1OC)-c1cc2c(cc1C3=O)OCO2`, the GI50 is 78 µM in assay [1]; greater than 100 µM in assay [9]; greater than 100 µM in assay [2]; greater than 100 µM in assay [4]; 8.39 µM in assay [5]; 5.66 µM in assay [6]. For the same compound, the GI50 is 3.45 µM in assay [8] and greater than 100 µM in assay [10]. The TGI in assay [1], in [9], in assay [2], in [4], in assay [5] and in assay [6] was greater than 100 µM throughout. Moreover, the TGI was 74.5 µM in [8] and greater than 100 µM in [10].

Regarding `Cc1cc(C)nc(NS(=O)(=O)c2ccc(Nc3c4ccccc4nc4c(C(=O)Nc5ccc(S(=O)(=O)Nc6cc(C)on6)cc5)ccc(Cl)c34)cc2)n1`, the TGI in [1] is 63 µM; in [2], greater than 100 µM; in [5] it was 53 µM; in [6], 61.3 µM; in assay [7], 71 µM.

For the compound `S=c1nc(C(c2ccccc2)c2ccccc2)[nH][nH]1`, the TGI in [1], in assay [2], in assay [3], in assay [4], in [5] and in assay [6] was greater than 100 µM each time. Further, in [7], the TGI is greater than 100 µM.

As for `Cc1c(NC(=O)CCl)c(=O)oc2c(C)c3occc(=O)c3cc12`, the TGI in [2] came out at 43.2 µM; in assay [3] it was 21.9 µM; in [4], 23.6 µM; in assay [6], 27.5 µM; in [7], 41.8 µM; in assay [8], 25.3 µM. In assay [10], this compound displayed a TGI of 66.3 µM.

As to `COc1cccc2c1C(=O)c1c(O)c3c(c(O)c1C2=O)C[C@@](O)(C(C)=O)C[C@@H]3OC1CC([N+]([O-])(Cc2ccccc2)Cc2ccccc2)C(O)C(C)O1` (stereo partly specified), the TGI worked out at 2.34 µM in assay [1]; 14.9 µM in [2]; 2.71 µM in assay [4]; 2.62 µM in assay [5]; 2.39 µM in assay [6]; 2.47 µM in [8].

As for `CC(=O)O[C@@]12CO[C@@H]1C[C@H](O)[C@@]1(C)C(=O)[C@H](O)C3=C(C)[C@@H](OC(=O)[C@H](O)[C@@H](NC(=O)OC(C)(C)C)c4ccccc4)C[C@@](O)([C@@H](OC(=O)c4ccccc4)C12)C3(C)C` (stereo partly specified), the GI50 in assay [1], in [2], in assay [3], in [4], in assay [5] and in assay [6] was less than 0.005 µM each time. In addition, the GI50 in [7] was less than 0.005 µM; in assay [8], 0.225 µM and 0.181 µM. The TGI in assay [1] was 50 µM; in [2] it was 50 µM; in [3], 0.0241 µM and 0.0348 µM; in assay [4], 9.05 µM and 14.6 µM; in [5], 19.3 µM and 22.9 µM; in [6], 20.1 µM and > 100 µM. The TGI in assay [7] was 29.3 µM and 60.8 µM; in assay [8] it was 50 µM and 73.6 µM.

Take `O=c1/c(=C/c2c(O)ccc3ccccc23)sc2nc3ccccc3n12`: the TGI in [1], in assay [2], in assay [3], in [4], in assay [5] and in assay [6] was greater than 100 µM throughout. For the same compound, the TGI in assay [7] and in assay [8] was greater than 100 µM each time.

`CCC#CC[C@H](O)C/C=C1/C(=O)C=C[C@@H]1C/C=C\CCCC(=O)OC`: the GI50 is 1.77 µM in assay [1]; 1.5 µM in [9]; 1.24 µM in [2]; 1.31 µM in [3]; 0.767 µM in assay [4]; 1.31 µM in assay [5]. Besides, the GI50 was 1.31 µM in assay [6], 0.413 µM in assay [7] and 1.48 µM in assay [8]. For the same compound, the TGI was 8.12 µM in assay [1]; 5.92 µM in assay [9]; 4.76 µM in assay [2]; 3.91 µM in [3]; 1.46 µM in [4]; 3.79 µM in [5]. Moreover, the TGI is 3.55 µM in assay [6], 5.66 µM in assay [7] and 4.65 µM in assay [8].

Regarding `O=C1C=CC(=O)C2C1Cc1ccccc1C2c1ccccc1` (stereo unspecified), the TGI is greater than 100 µM in [1]; 78 µM in [2]; 53.1 µM in assay [3]; greater than 100 µM in assay [4]; greater than 100 µM in assay [5]; 81.4 µM in [6]. For the same compound, the TGI is 68.7 µM in assay [7] and greater than 100 µM in assay [8].

Consider `CCC[CH2][Sn]([CH2]CCC)([CH2]CCC)[O]C(=O)C(OC(C)=O)c1ccccc1` (stereo unspecified), for which the GI50 was 0.144 µM in assay [1]; 0.167 µM in assay [2]; 0.147 µM in [4]; 0.165 µM in [5]; 0.138 µM in assay [6]; 0.159 µM in [8]. Further, the TGI in assay [1] is 0.275 µM; in [2], 0.304 µM; in assay [4] it was 0.28 µM; in assay [5], 0.306 µM; in assay [6], 0.28 µM; in [8] it was 0.3 µM.

Take `Cn1cnc([N+](=O)[O-])c1Sc1nnnn1C`: the TGI in [1] is 32.1 µM; in assay [2] it was 33.2 µM; in assay [4] it was 31.6 µM; in assay [5], 36.3 µM; in assay [6], greater than 100 µM; in assay [7], 25 µM. The same compound yielded a TGI in assay [8] of 31.8 µM.

For `CSC(=Nc1ccccc1Cl)NC(=O)c1ccc(Br)cc1`, the TGI in [1] was greater than 100 µM; in [2], greater than 100 µM; in assay [3], greater than 100 µM; in assay [5], greater than 100 µM; in [6], greater than 100 µM; in assay [8], 97.4 µM.

`NCCOCn1cc(Cc2cccc(OCc3ccccc3)c2)c(=O)[nH]c1=O`: the TGI in assay [1], in assay [2], in assay [3], in assay [4], in assay [5] and in assay [6] was greater than 100 µM throughout. For the same compound, the TGI in assay [7] was greater than 100 µM.

For the compound `Cc1ccc(NC(=O)C(=O)C(C(=O)c2ccc3ccccc3c2)C2OC(=O)c3ccccc32)c(C)c1` (stereo unspecified), the TGI in [1] came out at 53.4 µM; in [2] it was 36.8 µM; in assay [4], 24 µM; in assay [5] it was 19.4 µM; in assay [6], 25.5 µM; in [7], 78.1 µM. Moreover, the TGI in [8] stood at 32 µM.

As to `O=C1OC(c2ccccc2)(c2ccccc2)c2ccc3ccc(F)cc3c21`, the TGI in [1], in assay [2], in assay [3], in assay [4], in assay [5] and in assay [6] was greater than 100 µM each time. The TGI in assay [7] and in assay [8] was greater than 100 µM each time.
